Results from patent US5026829A, “Cyclo substituted propyleneamine oxime and its use as a brain imaging agent” (University of Cincinnati, priority 1989, dated 1991).

Experiments:
[1] = Comparative in vitro stability of 99m-Tc CB-PAO and 99m-Tc HM-PAO prepared in the same vial (HPLC); format: physicochemical; conditions: for in vitro stability, in words: 13.4 hours; for percentage of 99m-Tc complex (CB or HM): same vial, HPLC; for Stabilization: CB relative to HM; for CB/HM: ratio of CB to HM percentage
Experimental: In order to test the in vitro stability of the 99m-Tc-CB-PAO, 99m-Tc-CB-PAOand 99m-Tc-HMPAO were prepared in the same vial. The CB-PAO and HM-PAO agents were both reacted with pertechnetate in the same vial. This insures that both compositions were subjected to the same characteristics. These were then tested using HPLC. The results showing the percentage of 99m-Tc CB-PAO (labeled CB) and 99m-Tc HM-PAO labeled HM are shown in Table 1 over a period of 0 minutes to 13.4 hours.

[2] = cited from earlier work
[3] = background statement; cited from earlier work
[4] = In vitro stability of 99m-Tc-CB-PAO after pH lowering with gentisic acid; format: physicochemical; conditions: about 6mM gentisic acid solution added
Experimental: The d,l isomer is then complexed with 99m-technetium to obtain a brain perfusion imaging agent. To formulate the 99m-Tc-d,l-CB-PAO 5ml of a ligand solution is placed into an evacuated 10 ml vial. The ligand solution contained approximately 0.5 mg/ml of ligand. One hundred and fifty microliters of a tin chloride solution containing 10 mg of tin chloride per 50 ml in water was added. Ten to one hundred microliters of 99m-pertechnetate sodium solution eluted from a molybdenum 99 generator is added to the vial and this is shaken for 10 seconds. An imaging solution can be immediately removed for use.
However, it is preferable that the pH of the solution which upon addition of the stanous chloride is about 8.9 be lowered. Accordingly, gentisic acid was used to lower the pH of the complex. A solution of gentisic acid was made by dissolving 0.0303g of gentisic acid and 30ml saline. 3.0 milliliters of this solution was pipetted into another vial.
An additional 30ml of saline was added. This latter vial was purged with argon for 50 minutes and sealed to yield a solution of about […] in gentisic acid. 1.0-1.2ml of the above solution was added to a 10 ml evacuated vial. 2.5 milliliters of 99m-Tc-CB-PAO previously prepared is then added to this evacuated vial. This was then tested for stability. At 15 minutes, 100% of the 99m-Tc-CB-PAO remained. At 165 minutes again 100% of the 99m-Tc-CB-PAO remained. At 18 hours 98% of the 99m-Tc-CB-PAO remained.

[5] = Renal clearance (urine collection) in normal human volunteers; format: in vivo
Experimental: (§1) In order to test the whole body biodistribution of the 99m-Tc CB-PAO tracer, three normal human volunteers were tested using single photon emission computed tomography. Whole body images were obtained at 15 minutes, two hours and five hours after an intraveneous injection of about 13 millicurries of Tc-99m d,l-CB-PAO. A dynamic study during the first ten minutes after administration of the tracer defined the time activity curve for brain uptake. The tomographic study was performed at one hour after administration. Venous blood samples were collected at various times up to five hours after administration and urine was collected up to 24 hours after administration.

[6] = Whole body biodistribution by single photon emission computed tomography in normal human volunteers; format: in vivo; conditions: intravenous, about 13 millicurries, in %
Experimental: as §1

[7] = Brain uptake, retention and tomographic brain imaging in normal human volunteers; format: in vivo
Experimental: as §1
The decrease in cerebral activity is only about 5% between 15 minutes and 2 hours after injection. Approximately 24% of the injected dose is cleared through the renal system within five hours and approximately 37% is cleared within 24 hours.

For C/C(=N\O)[C@@H](C)NCC(C)(C)CN[C@H](C)/C(C)=N/O [99m-Tc HM-PAO, 4,8,-diaza-3,6,6,9-tetramethyl undecane-2,10-dione bisoxime, metal not drawn], the “in vitro stability, in words” value [1] is given as “most of the 99m-Tc HM-PAO had decomposed”, the “percentage of 99m-Tc complex (CB or HM)” value ([1]; time 0) is given as 39.5% and the “aqueous in vitro degradation rate, in words” value ([2]; J. Nucl. Med. 1988) is given as “slow”. For the same compound, the “time after formulation within which it must be administered” value ([2]; aqueous, without stabilizer, J. Nucl. Med. 1988) was no more than 30 min, the “time after preparation within which it must be used, in words” value ([2]; stabilized with gentisic acid within 30 seconds after formation) was “must be used within hours after preparation” and the “brain passage and retention, in words” value [3] was “passes through the blood brain barrier, is theoretically altered in some way, and remains in the brain for a period of time sufficient to obtain a successful brain image”.
Work on CC1=[N+]([O-])[99Tc-2]23(=[O])[N](CC4(CCC4)C[N]2C(C)C(C)=[N+]3O)C1C (racemic) [99m-Tc CB-PAO] yielded a Stabilization ([1]; 23 min) of 30%, a CB/HM ([1]; 23 min) of 1.85 and a Stabilization ([1]; 74 min) of 50%. For the same compound, the CB/HM ([1]; 74 min) was 2.04, the Stabilization ([1]; 3.3 h) was 53% and the CB/HM ([1]; 3.3 h) was 2.11. For the same compound, the Stabilization ([1]; 12.2 h) was 140%, the CB/HM ([1]; 12.2 h) was 3.29 and the Stabilization ([1]; 13.4 h) was 160%. For the same compound, the CB/HM ([1]; 13.4 h) was 3.58, the “in vitro stability, in words” value [1] was “most of the 99m-Tc CB-PAO remained” and the Stabilization ([1]; time 0) was 0%. The CB/HM ([1]; time 0) was 1.40, the “percentage of 99m-Tc complex (CB or HM)” value ([1]; time 0) was 55.2% and the “in vitro stability compared with the prior art brain imaging agent, in words” value ([1]; vs 99m-Tc HM-PAO) was “substantially more stable in vitro than the prior art brain imaging agent”. For the same compound, the 99m-Tc-CB-PAO remaining ([4]; 15 minutes) was 100%, the 99m-Tc-CB-PAO remaining ([4]; 165 minutes) was 100% and the 99m-Tc-CB-PAO remaining ([4]; 18 hours) was 98%. The “injected dose cleared through the renal system” value ([5]; within 24 hours) was “approximately 37 % of the injected dose”, the “injected dose cleared through the renal system” value ([5]; within five hours, 300 min) was “Approximately 24 % of the injected dose” and the “Whole body distribution, Bladder & Urine” value ([6]; 15') was 4.2 ± 1.36. For the same compound, the “Whole body distribution, Blood” value ([6]; 15') was 14.9 ± 0.79, the “Whole body distribution, Brain” value ([6]; 15') was 3.6 ± 0.26 and the “Whole body distribution, Gallbladder” value ([6]; 15') was 2.2 ± 0.05. For the same compound, the “Whole body distribution, Liver” value ([6]; 15') was 26.4 ± 7.1, the “Whole body distribution, Lungs” value ([6]; 15') was 4.0 ± 0.85 and the “Whole body distribution, Bladder & Urine” value ([6]; 2h) was 19.4 ± 8.4. The “Whole body distribution, Blood” value ([6]; 2h) was 8.3 ± 0.7, the “Whole body distribution, Brain” value ([6]; 2h) was 3.5 ± 0.15 and the “Whole body distribution, Gallbladder” value ([6]; 2h) was 2.8 ± 0.7. The “Whole body distribution, Liver” value ([6]; 2h) was 25.4 ± 7, the “Whole body distribution, Lungs” value ([6]; 2h) was 3.1 ± 0.70 and the “Whole body distribution, Bladder & Urine” value ([6]; 5h) was 23.5 ± 2.80. For the same compound, the “Whole body distribution, Blood” value ([6]; 5h) was 5.8 ± 0.45, the “Whole body distribution, Brain” value ([6]; 5h) was 3.5 ± 0.11 and the “Whole body distribution, Gallbladder” value ([6]; 5h) was 1.7 ± 0.65. The “Whole body distribution, Liver” value ([6]; 5h) was 22.3 ± 9.5, the “Whole body distribution, Lungs” value ([6]; 5h) was 2.7 ± 0.72 and the “decrease in cerebral activity” value ([7]; between 15 minutes and 2 hours after injection) was “about 5%”. For the same compound, the “tomographic brain image quality, in words” value ([7]; tomographic study at one hour after administration) was “good definition of cerebral structures and good distinction between grey and white matter”, the “stability of brain uptake, in words” value ([7]; up to five hours after injection) was “stable for up to five hours” and the “injected dose taken up by the brain” value ([7]; within the first five minutes after intravenous injection) was “Approximately 3.6 % of the injected dose”.
